# Experimental data reported in patent US6355799B1, “Substituted benzene compounds, process for their preparation, and herbicidal and defoliant compositions containing them” (ISK Americas Incorporated, priority 1997, dated 2002).
# How the values were obtained:
# Assay type in all cases: in vivo
# [1] = test system: barnyardgrass (Echinochloa crus-galli, ECHCG); assay: Post-emerge test, greenhouse herbicide activity screening; conditions: phytotoxicity rating 0-100 (0 no damage, 100 complete death), 14 days after application
# Summary of the method: (§1)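 Compounds in acetone were track-sprayed at 15–1000 g ai/ha: pre-emergence onto soil sown the previous day, then top-watered to incorporate and later bottom-watered; post-emergence onto 2–3 leaf plants with 0.25% v/v surfactant, bottom-watered only. Ratings on a 0–100 phytotoxicity scale were taken at day 14.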
# [2] = test system: sicklepod (Cassia obtusifolia, CASOB); assay: as above; conditions: phytotoxicity rating 0-100 (0 no damage, 100 complete death), 14 days after application
# Summary of the method: as §1
# [3] = test system: green foxtail (Setaria viridis, SETVI); assay: as above; conditions: phytotoxicity rating 0-100 (0 no damage, 100 complete death), 14 days after application
# Summary of the method: as §1
# [4] = test system: common ragweed (Ambrosia artemisizfolia L., AMBEL); assay: as above; conditions: phytotoxicity rating 0-100 (0 no damage, 100 complete death), 14 days after application
# Summary of the method: as §1
# [5] = test system: ivyleaf morningglory (Ipomoea hederacea, IPOHE); assay: as above; conditions: phytotoxicity rating 0-100 (0 no damage, 100 complete death), 14 days after application
# Summary of the method: as §1
# [6] = test system: large crabgrass (Digitaria sanguinalis, DIGSA); assay: as above; conditions: phytotoxicity rating 0-100 (0 no damage, 100 complete death), 14 days after application
# Summary of the method: as §1
# [7] = test system: redroot pigweed (Amaranthus retroflexus, AMARE); assay: as above; conditions: phytotoxicity rating 0-100 (0 no damage, 100 complete death), 14 days after application
# Summary of the method: as §1
# [8] = test system: velvetleaf (Abutilon theophrasti, ABUTH); assay: as above; conditions: phytotoxicity rating 0-100 (0 no damage, 100 complete death), 14 days after application
# Summary of the method: as §1
# [9] = test system: lambsquarters (Chenopodium album, CHEAL); assay: as above; conditions: phytotoxicity rating 0-100 (0 no damage, 100 complete death), 14 days after application
# Summary of the method: as §1
# [10] = test system: upland rice (Oryza sp., var. Tebonnet, RICE); assay: Pre-emerge test, crop safety; conditions: pre-emerge, rated 14 days after application, 0 = no damage, 100 = complete death
# Summary of the method: (§2)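 Visual ratings on a 0-100 scale (0 no damage, 100 all plants dead) were taken at 14 days after treatment. Rates of 15-1000 g ai/ha in acetone, 187 l/ha, were sprayed onto soil one day after planting (pre-emerge) or onto 2-3 leaf plants with 0.25% v/v surfactant (post-emerge).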
# [11] = test system: field corn (Zea mays L., var. Dekalb 535, CORN); assay: Pre-emerge test, crop safety; conditions: pre-emerge, rated 14 days after application, 0 = no damage, 100 = complete death
# Summary of the method: as §2
# [12] = test system: upland rice (Oryza sp., var. Tebonnet, RICE); assay: Post-emerge test, crop safety; conditions: phytotoxicity rating 0-100 (0 no damage, 100 complete death), 14 days after application
# Summary of the method: (§3)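 Rating: 0–100 visual injury, 14 DAA. Application: acetone, 187 l/ha, 15–1000 g ai/ha, flat-fan track sprayer with nozzle 40–45 cm above soil or canopy. Post-emerge runs used 0.25% v/v surfactant on 2–3 leaf plants.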
# [13] = test system: field corn (Zea mays L., var. Dekalb 535, CORN); assay: Post-emerge test, crop safety; conditions: phytotoxicity rating 0-100 (0 no damage, 100 complete death), 14 days after application
# Summary of the method: as §3
# [14] = test system: johnsongrass (Sorghum halepense, SORHA); assay: Pre-emerge test, greenhouse herbicide activity screening; conditions: pre-emerge, rated 14 days after application, 0 = no damage, 100 = complete death
# Summary of the method: as §1
# [15] = test system: barnyardgrass (Echinochloa crus-galli, ECHCG); assay: as above; conditions: pre-emerge, rated 14 days after application, 0 = no damage, 100 = complete death
# Summary of the method: as §1
# [16] = test system: sicklepod (Cassia obtusifolia, CASOB); assay: as above; conditions: pre-emerge, rated 14 days after application, 0 = no damage, 100 = complete death
# Summary of the method: as §1
# [17] = test system: green foxtail (Setaria viridis, SETVI); assay: as above; conditions: pre-emerge, rated 14 days after application, 0 = no damage, 100 = complete death
# Summary of the method: as §1
# [18] = test system: common ragweed (Ambrosia artemisizfolia L., AMBEL); assay: as above; conditions: pre-emerge, rated 14 days after application, 0 = no damage, 100 = complete death
# Summary of the method: as §1
# [19] = test system: ivyleaf morningglory (Ipomoea hederacea, IPOHE); assay: as above; conditions: pre-emerge, rated 14 days after application, 0 = no damage, 100 = complete death
# Summary of the method: as §1
# [20] = test system: large crabgrass (Digitaria sanguinalis, DIGSA); assay: as above; conditions: pre-emerge, rated 14 days after application, 0 = no damage, 100 = complete death
# Summary of the method: as §1
# [21] = test system: velvetleaf (Abutilon theophrasti, ABUTH); assay: as above; conditions: pre-emerge, rated 14 days after application, 0 = no damage, 100 = complete death
# Summary of the method: as §1
# [22] = test system: lambsquarters (Chenopodium album, CHEAL); assay: as above; conditions: pre-emerge, rated 14 days after application, 0 = no damage, 100 = complete death
# Summary of the method: as §1
# [23] = test system: redroot pigweed (Amaranthus retroflexus, AMARE); assay: as above; conditions: pre-emerge, rated 14 days after application, 0 = no damage, 100 = complete death
# Summary of the method: as §3
smiles,measurement,setting,value
CCOC(=O)C(C)Nc1cc(Cl)cc(F)c1-n1c(=O)cc(C(F)(F)F)n(C)c1=O (stereo not shown) [Compound 1-54],Post-emerge Herbicidal Activity ECHCG,[1]; 63 g ai/ha,20
same,Post-emerge Herbicidal Activity ECHCG,[1]; 250 g ai/ha,75
same,Post-emerge Herbicidal Activity CASOB,[2]; 63 g ai/ha,90
same,Post-emerge Herbicidal Activity CASOB,[2]; 250 g ai/ha,100
same,Post-emerge Herbicidal Activity SETVI,[3]; 63 g ai/ha,40
same,Post-emerge Herbicidal Activity SETVI,[3]; 250 g ai/ha,60
same,Post-emerge Herbicidal Activity AMBEL,[4]; 63 g ai/ha,100
same,Post-emerge Herbicidal Activity AMBEL,[4]; 250 g ai/ha,100
same,Post-emerge Herbicidal Activity IPOHE,[5]; 63 g ai/ha,100
same,Post-emerge Herbicidal Activity IPOHE,[5]; 250 g ai/ha,100
same,Post-emerge Herbicidal Activity DIGSA,[6]; 63 g ai/ha,40
same,Post-emerge Herbicidal Activity DIGSA,[6]; 250 g ai/ha,70
same,Post-emerge Herbicidal Activity AMARE,[7]; 63 g ai/ha,100
same,Post-emerge Herbicidal Activity AMARE,[7]; 250 g ai/ha,100
same,Post-emerge Herbicidal Activity ABUTH,[8]; 63 g ai/ha,100
same,Post-emerge Herbicidal Activity ABUTH,[8]; 250 g ai/ha,100
same,Post-emerge Herbicidal Activity CHEAL,[9]; 63 g ai/ha,100
same,Post-emerge Herbicidal Activity CHEAL,[9]; 250 g ai/ha,100
same,"Pre-emerge crop damage RICE (phytotoxicity rating, scale 0-100)",[10]; 63 g ai/ha,60
same,"Pre-emerge crop damage RICE (phytotoxicity rating, scale 0-100)",[10]; 250 g ai/ha,95
same,"Pre-emerge crop damage CORN (phytotoxicity rating, scale 0-100)",[11]; 63 g ai/ha,95
same,"Pre-emerge crop damage CORN (phytotoxicity rating, scale 0-100)",[11]; 250 g ai/ha,99
same,Post-emerge Herbicidal Activity RICE (crop damage),[12]; 63 g ai/ha,40
same,Post-emerge Herbicidal Activity RICE (crop damage),[12]; 250 g ai/ha,45
same,Post-emerge Herbicidal Activity CORN (crop damage),[13]; 63 g ai/ha,50
same,Post-emerge Herbicidal Activity CORN (crop damage),[13]; 250 g ai/ha,70
same,"Pre-emerge Herbicidal Activity SORHA (phytotoxicity rating, scale 0-100)",[14]; 63 g ai/ha,80
same,"Pre-emerge Herbicidal Activity SORHA (phytotoxicity rating, scale 0-100)",[14]; 250 g ai/ha,100
same,"Pre-emerge Herbicidal Activity ECHCG (phytotoxicity rating, scale 0-100)",[15]; 63 g ai/ha,45
same,"Pre-emerge Herbicidal Activity ECHCG (phytotoxicity rating, scale 0-100)",[15]; 250 g ai/ha,100
same,"Pre-emerge Herbicidal Activity CASOB (phytotoxicity rating, scale 0-100)",[16]; 63 g ai/ha,30
same,"Pre-emerge Herbicidal Activity CASOB (phytotoxicity rating, scale 0-100)",[16]; 250 g ai/ha,80
same,"Pre-emerge Herbicidal Activity SETVI (phytotoxicity rating, scale 0-100)",[17]; 63 g ai/ha,90
same,"Pre-emerge Herbicidal Activity SETVI (phytotoxicity rating, scale 0-100)",[17]; 250 g ai/ha,100
same,"Pre-emerge Herbicidal Activity AMBEL (phytotoxicity rating, scale 0-100)",[18]; 63 g ai/ha,100
same,"Pre-emerge Herbicidal Activity AMBEL (phytotoxicity rating, scale 0-100)",[18]; 250 g ai/ha,100
same,"Pre-emerge Herbicidal Activity IPOHE (phytotoxicity rating, scale 0-100)",[19]; 63 g ai/ha,100
same,"Pre-emerge Herbicidal Activity IPOHE (phytotoxicity rating, scale 0-100)",[19]; 250 g ai/ha,100
same,"Pre-emerge Herbicidal Activity DIGSA (phytotoxicity rating, scale 0-100)",[20]; 63 g ai/ha,80
same,"Pre-emerge Herbicidal Activity DIGSA (phytotoxicity rating, scale 0-100)",[20]; 250 g ai/ha,100
same,"Pre-emerge Herbicidal Activity ABUTH (phytotoxicity rating, scale 0-100)",[21]; 63 g ai/ha,100
same,"Pre-emerge Herbicidal Activity ABUTH (phytotoxicity rating, scale 0-100)",[21]; 250 g ai/ha,100
same,"Pre-emerge Herbicidal Activity CHEAL (phytotoxicity rating, scale 0-100)",[22]; 63 g ai/ha,100
same,"Pre-emerge Herbicidal Activity CHEAL (phytotoxicity rating, scale 0-100)",[22]; 250 g ai/ha,100
same,"Pre-emerge Herbicidal Activity AMARE (phytotoxicity rating, scale 0-100)",[23]; 63 g ai/ha,100
same,"Pre-emerge Herbicidal Activity AMARE (phytotoxicity rating, scale 0-100)",[23]; 250 g ai/ha,100
